Results on 20 compounds are retold here after patent US10479780B2, “Aminopyrazole derivatives” (Chugai Seiyaku Kabushiki Kaisha, priority 2015, dated 2019).

What all share (assay type): biochemical
One assay concerns the target T1, human Yes1 enzyme (Homo sapiens, UniProt P07947).
T1 construct: made in house
The assay is described as follows: Yes1 enzyme inhibitory activity (time-resolved fluorometry, biotinylated peptide phosphorylation). As to conditions: read-out: YES_IC50. The method, boiled down: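 Inhibition was expressed against a compound-free control to give IC50, using TR-FRET read-out (Eu-cryptate anti-pTyr antibody, streptavidin-XL665).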

Another assay deals with T2, human Lck enzyme (Homo sapiens, UniProt P06239).
T2 construct: purchased Carna Biosciences, Inc. 08-170
The assay is described as follows: Lck enzyme inhibitory activity (time-resolved fluorometry, biotinylated peptide phosphorylation). As to conditions: read-out: LCK_IC50. The method, boiled down:
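Readout pairs a europium cryptate-labelled anti-phosphotyrosine antibody with XL665-streptavidin, measured by time-resolved fluorescence. IC50 derived from percent inhibition against untreated controls.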

In another assay the target is T3, human Src enzyme (Homo sapiens, UniProt P12931).
T3 construct: purchased Carna Biosciences, Inc. 08-173
The experiment in a line: Src enzyme inhibitory activity (time-resolved fluorometry, biotinylated peptide phosphorylation). The note with it: read-out: SRC_IC50. The method, boiled down:
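Compounds were tested for blocking tyrosine phosphorylation of a biotinylated peptide substrate by recombinant human Src. Phosphorylated product was quantified by time-resolved fluorometry using europium cryptate and XL665 conjugates, and IC50 was calculated against the compound-free control.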

T1 sequence (P07947 whole entry): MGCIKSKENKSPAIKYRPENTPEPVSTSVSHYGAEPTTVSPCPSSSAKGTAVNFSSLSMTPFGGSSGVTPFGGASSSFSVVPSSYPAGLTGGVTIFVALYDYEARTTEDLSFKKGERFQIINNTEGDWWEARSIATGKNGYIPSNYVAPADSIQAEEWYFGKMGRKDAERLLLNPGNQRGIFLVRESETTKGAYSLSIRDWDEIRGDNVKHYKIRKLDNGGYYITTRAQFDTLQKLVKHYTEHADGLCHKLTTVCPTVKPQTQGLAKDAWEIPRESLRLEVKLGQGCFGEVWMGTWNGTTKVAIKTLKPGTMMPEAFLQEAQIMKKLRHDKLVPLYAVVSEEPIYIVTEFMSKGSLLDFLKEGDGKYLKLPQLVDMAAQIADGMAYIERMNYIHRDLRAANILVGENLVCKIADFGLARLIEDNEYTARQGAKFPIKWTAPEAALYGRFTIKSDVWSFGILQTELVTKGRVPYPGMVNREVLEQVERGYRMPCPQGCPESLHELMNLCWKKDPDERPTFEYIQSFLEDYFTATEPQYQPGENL
T3 sequence (P12931 whole entry): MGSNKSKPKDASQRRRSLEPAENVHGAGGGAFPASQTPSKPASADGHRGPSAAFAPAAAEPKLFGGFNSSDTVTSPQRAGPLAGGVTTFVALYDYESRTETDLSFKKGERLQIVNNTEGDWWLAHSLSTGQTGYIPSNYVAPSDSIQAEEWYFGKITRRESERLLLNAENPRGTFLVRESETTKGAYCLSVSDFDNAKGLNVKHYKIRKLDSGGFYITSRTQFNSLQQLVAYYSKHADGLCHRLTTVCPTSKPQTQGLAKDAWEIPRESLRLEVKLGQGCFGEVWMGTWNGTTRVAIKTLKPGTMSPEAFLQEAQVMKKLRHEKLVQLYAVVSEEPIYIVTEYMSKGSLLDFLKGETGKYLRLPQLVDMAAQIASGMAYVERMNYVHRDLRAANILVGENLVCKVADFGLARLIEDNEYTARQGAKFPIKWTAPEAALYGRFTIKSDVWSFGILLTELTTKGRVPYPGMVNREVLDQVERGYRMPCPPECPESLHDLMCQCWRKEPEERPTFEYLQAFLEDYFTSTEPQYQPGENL
T2 sequence (P06239 whole entry): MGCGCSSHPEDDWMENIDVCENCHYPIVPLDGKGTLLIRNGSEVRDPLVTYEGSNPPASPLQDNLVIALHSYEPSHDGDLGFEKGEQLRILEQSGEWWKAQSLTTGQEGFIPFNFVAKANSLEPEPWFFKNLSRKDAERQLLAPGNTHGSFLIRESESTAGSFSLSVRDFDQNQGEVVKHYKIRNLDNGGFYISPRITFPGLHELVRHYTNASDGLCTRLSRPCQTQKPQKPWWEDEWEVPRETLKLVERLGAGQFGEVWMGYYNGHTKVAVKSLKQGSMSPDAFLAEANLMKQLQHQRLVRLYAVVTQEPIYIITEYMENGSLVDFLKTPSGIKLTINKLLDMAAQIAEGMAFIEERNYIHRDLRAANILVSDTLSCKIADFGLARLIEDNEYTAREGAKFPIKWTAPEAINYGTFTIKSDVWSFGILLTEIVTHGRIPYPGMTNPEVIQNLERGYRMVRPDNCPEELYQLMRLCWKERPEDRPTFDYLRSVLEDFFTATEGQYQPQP

As to `Cc1cc(-n2ncc(C(=O)c3cc4cc(OC(F)F)c(N)cc4[nH]3)c2N)ccc1Oc1ccccc1F` [Example 5-1-161, [6-amino-5-(difluoromethoxy)-1H-indol-2-yl]-[5-amino-1-[4-(2-fluorophenoxy)-3-methylphenyl]pyrazol-4-yl]methanone], the IC50 is 2.8 nM on human Yes1 enzyme, 160 nM on human Lck enzyme and 600 nM at human Src enzyme.

As to `Cc1cc(-n2ncc(C(=O)c3cc4cc(OCC(F)F)c(N)cc4[nH]3)c2N)ccc1Oc1ccccc1F` [Example 5-1-162, [6-amino-5-(2,2-difluoroethoxy)-1H-indol-2-yl]-[5-amino-1-[4-(2-fluorophenoxy)-3-methylphenyl]pyrazol-4-yl]methanone], the IC50 at human Yes1 enzyme turned out to be 2.1 nM; at human Lck enzyme it was 120 nM; on human Src enzyme, 480 nM.

With `Cc1cc(-n2ncc(C(=O)c3cc4cc(OC5CCN(C(C)C)CC5)c(N)cc4[nH]3)c2N)ccc1Oc1ccccc1F` [Example 5-1-163, (5-amino-1-(4-(2-fluorophenoxy)-3-methylphenyl)-1H-pyrazol-4-yl)(6-amino-5-((1-isopropylpiperidin-4-yl)oxy)-1H-indol-2-yl)methanone], the IC50 on human Yes1 enzyme came out at 0.64 nM; on human Lck enzyme, 7 nM; at human Src enzyme it was 59 nM.

For the compound `Cc1cc(-n2ncc(C(=O)c3cc4cc(N5CCOCC5)c(N5C(=O)NC(C)(C)C5=O)cc4[nH]3)c2N)ccc1Oc1ccccc1F` [Example 5-1-164, 3-[2-[5-amino-1-[4-(2-fluorophenoxy)-3-methylphenyl]pyrazole-4-carbonyl]-5-morpholin-4-yl-1H-indol-6-yl]-5,5-dimethylimidazolidine-2,4-dione], the IC50 on human Yes1 enzyme was determined as 1.8 nM; on human Lck enzyme, 69 nM; on human Src enzyme, 700 nM.

In the case of `Cc1cc(-n2ncc(C(=O)c3cc4cc(N5CCOCC5)c(N5CCC(N6CCOCC6)CC5)cc4[nH]3)c2N)ccc1Oc1ccccc1F` [Example 5-1-165, [5-amino-1-[4-(2-fluorophenoxy)-3-methylphenyl]pyrazol-4-yl]-[5-morpholin-4-yl-6-(4-morpholin-4-ylpiperidin-1-yl)-1H-indol-2-yl] methanone], the IC50 at human Yes1 enzyme came out at 1.8 nM; on human Lck enzyme, 37 nM; at human Src enzyme it was 340 nM.

Turning to `Cc1cc(-n2ncc(C(=O)c3cc4cc(OCC(F)F)c(NS(C)(=O)=O)cc4[nH]3)c2N)ccc1Oc1ccccc1F` [Example 5-1-166, N-[2-[5-amino-1-[4-(2-fluorophenoxy)-3-methylphenyl]pyrazole-4-carbonyl]-5-(2,2-difluoroethoxy)-1H-indol-6-yl] methanesulfonamide], the IC50 at human Yes1 enzyme came out at 2 nM; at human Lck enzyme, 250 nM; on human Src enzyme, 820 nM.

As to `Cc1cc(-n2ncc(C(=O)c3cc4cc(OC(F)F)c(NS(C)(=O)=O)cc4[nH]3)c2N)ccc1Oc1ccccc1F` [Example 5-1-167, N-[2-[5-amino-1-[4-(2-fluorophenoxy)-3-methylphenyl]pyrazole-4-carbonyl]-5-(difluoromethoxy)-1H-indol-6-yl] methanesulfonamide], the IC50 at human Yes1 enzyme stood at 3.6 nM; on human Lck enzyme, 370 nM; on human Src enzyme it was 2000 nM.

Consider `Cc1cc(-n2ncc(C(=O)c3cc4cc(OCC(F)F)c(N5CCOC5=O)cc4[nH]3)c2N)ccc1Oc1ccccc1F` [Example 5-1-168, 3-[2-[5-amino-1-[4-(2-fluorophenoxy)-3-methylphenyl]pyrazole-4-carbonyl]-5-(2,2-difluoroethoxy)-1H-indol-6-yl]-1,3-oxazolidin-2-one], for which the IC50 on human Yes1 enzyme turned out to be 1.1 nM; on human Lck enzyme, 45 nM; on human Src enzyme, 210 nM.

For the compound `Cc1cc(-n2ncc(C(=O)c3cc4cc(OCC(F)F)c(N5CCOCC5)cc4[nH]3)c2N)ccc1Oc1ccccc1F` [Example 5-1-169, [5-amino-1-[4-(2-fluorophenoxy)-3-methylphenyl]pyrazol-4-yl]-[5-(2,2-difluoroethoxy)-6-morpholin-4-yl-1H-indol-2-yl] methanone], the IC50 came to 0.88 nM at human Yes1 enzyme, 46 nM on human Lck enzyme and 100 nM on human Src enzyme.

Regarding `Cc1cc(-n2ncc(C(=O)c3cc4cc(OCC(F)F)c(N5C(=O)NC(C)(C)C5=O)cc4[nH]3)c2N)ccc1Oc1ccccc1F` [Example 5-1-170, 3-[2-[5-amino-1-[4-(2-fluorophenoxy)-3-methylphenyl]pyrazole-4-carbonyl]-5-(2,2-difluoroethoxy)-1H-indol-6-yl]-5,5-dimethylimidazolidine-2,4-dione], the IC50 at human Yes1 enzyme was 1.3 nM; at human Lck enzyme it was 89 nM; on human Src enzyme it was 490 nM.

Regarding `Cc1cc(-n2ncc(C(=O)c3cc4cc(OCC(F)F)c(N5CCN(S(C)(=O)=O)CC5)cc4[nH]3)c2N)ccc1Oc1ccccc1F` [Example 5-1-171, [5-amino-1-[4-(2-fluorophenoxy)-3-methylphenyl]pyrazol-4-yl]-[5-(2,2-difluoroethoxy)-6-(4-methylsulfonylpiperazin-1-yl)-1H-indol-2-yl]methanone], the IC50 at human Yes1 enzyme was found to be 1.1 nM; on human Lck enzyme it was 49 nM; on human Src enzyme, 79 nM.

For `Cc1cc(-n2ncc(C(=O)c3cc4cc(OCC(F)F)c(N5CCC(N6CCOCC6)CC5)cc4[nH]3)c2N)ccc1Oc1ccccc1F` [Example 5-1-172, [5-amino-1-[4-(2-fluorophenoxy)-3-methylphenyl]pyrazol-4-yl]-[5-(2,2-difluoroethoxy)-6-(4-morpholin-4-ylpiperidin-1-yl)-1H-indol-2-yl]methanone], the results for the IC50 at human Yes1 enzyme, at human Lck enzyme and at human Src enzyme were 0.9 nM, 18 nM and 170 nM, respectively.

Consider `Cc1cc(-n2ncc(C(=O)c3cc4cc(OC(F)F)c(N5CCOCC5)cc4[nH]3)c2N)ccc1Oc1ccccc1F` [Example 5-1-173, [5-amino-1-[4-(2-fluorophenoxy)-3-methylphenyl]pyrazol-4-yl]-[5-(difluoromethoxy)-6-morpholin-4-yl-1H-indol-2-yl]methanone], for which the figures for the IC50 at human Yes1 enzyme, on human Lck enzyme and at human Src enzyme were 2.6 nM, 100 nM and 340 nM, respectively.

`Cc1cc(-n2ncc(C(=O)c3cc4cc(OC5CCN(C(C)C)CC5)c(N5CCOCC5)cc4[nH]3)c2N)ccc1Oc1ccccc1F` [Example 5-1-174, (5-amino-1-(4-(2-fluorophenoxy)-3-methylphenyl)-1H-pyrazol-4-yl)(5-((1-isopropylpiperidin-4-yl)oxy)-6-morpholino-1H-indol-2-yl)methanone]: the IC50 on human Yes1 enzyme was 0.56 nM; at human Lck enzyme it was 4.5 nM; at human Src enzyme it was 46 nM.

Turning to `Cc1cc(-n2ncc(C(=O)c3cc4cc(OC(F)F)c(N5CCN(S(C)(=O)=O)CC5)cc4[nH]3)c2N)ccc1Oc1ccccc1F` [Example 5-1-175, [5-amino-1-[4-(2-fluorophenoxy)-3-methylphenyl]pyrazol-4-yl]-[5-(difluoromethoxy)-6-(4-methylsulfoNylpiperazin-1-yl)-1H-indol-2-yl]methanone], the IC50 worked out at 2.4 nM on human Yes1 enzyme, 74 nM at human Lck enzyme and 350 nM on human Src enzyme.

Regarding `Cc1cc(-n2ncc(C(=O)c3cc4cc(OC5CCN(C(C)C)CC5)c(N5CCN(S(C)(=O)=O)CC5)cc4[nH]3)c2N)ccc1Oc1ccccc1F` [Example 5-1-176, [5-amino-1-[4-(2-fluorophenoxy)-3-methylphenyl]pyrazol-4-yl]-[6-(4-methylsulfonylpiperazin-1-yl)-5-(1-propan-2-ylpiperidin-4-yl)oxy-1H-indol-2-yl]methanone], the results for the IC50 on human Yes1 enzyme, at human Lck enzyme and on human Src enzyme were 1 nM, 11 nM and 79 nM, respectively.

As for `Cc1cc(-n2ncc(C(=O)c3cc4cc(OC(F)F)c(N5CCOC5=O)cc4[nH]3)c2N)ccc1Oc1ccccc1F` [Example 5-1-177, 3-[2-[5-amino-1-[4-(2-fluorophenoxy)-3-methylphenyl]pyrazole-4-carbonyl]-5-(difluoromethoxy)-1H-indol-6-yl]-1,3-oxazolidin-2-one], the values for the IC50 on human Yes1 enzyme, at human Lck enzyme and on human Src enzyme were 2.4 nM, 82 nM and 340 nM, respectively.

For `Cc1cc(-n2ncc(C(=O)c3cc4cc(OC5CCN(C(C)C)CC5)c(N5CCOC5=O)cc4[nH]3)c2N)ccc1Oc1ccccc1F` [Example 5-1-178, 3-(2-(5-amino-1-(4-(2-fluorophenoxy)-3-methylphenyl)-1H-pyrazole-4-carbonyl)-5-((1-isopropylpiperidin-4-yl)oxy)-1H-indol-6-yl)oxazolidin-2-one], the IC50 on human Yes1 enzyme came to 0.37 nM; on human Lck enzyme it was 3.4 nM; on human Src enzyme, 48 nM.

For the compound `Cc1cc(-n2ncc(C(=O)c3cc4cc(OC(F)F)c(N5C(=O)NC(C)(C)C5=O)cc4[nH]3)c2N)ccc1Oc1ccccc1F` [Example 5-1-179, 3-[2-[5-amino-1-[4-(2-fluorophenoxy)-3-methylphenyl]pyrazole-4-carbonyl]-5-(difluoromethoxy)-1H-indol-6-yl]-5,5-dimethylimidazolidine-2,4-dione], the results for the IC50 at human Yes1 enzyme, at human Lck enzyme and at human Src enzyme were 4 nM, 180 nM and 810 nM, respectively.

Regarding `Cc1cc(-n2ncc(C(=O)c3cc4cc(OC5CCN(C(C)C)CC5)c(N5C(=O)NC(C)(C)C5=O)cc4[nH]3)c2N)ccc1Oc1ccccc1F` [Example 5-1-180, 3-[2-[5-amino-1-[4-(2-fluorophenoxy)-3-methylphenyl]pyrazole-4-carbonyl]-5-(1-propan-2-ylpiperidin-4-yl)oxy-1H-indol-6-yl]-5,5-dimethylimidazolidine-2,4-dione], the IC50 at human Yes1 enzyme amounted to 0.35 nM; on human Lck enzyme it was 6.3 nM; on human Src enzyme, 95 nM.
